Like-named read-outs stand apart in the source and are kept apart here.
Assays:
[1] = system: total cells in synovial fluid of dog knee joint; assay: Immune complex-induced synovitis in the dog knee joint: cellular infiltrate; type: in vivo, Mongrel dogs; settings: for cellular infiltrate (in words): 100 mg/kg orally; for cellular infiltrate (in words) / total cell number / cellular infiltration (in words): dog; for total cell number / cellular infiltration (in words): i.v. 25 mg/kg or orally
Description: (§1) The accuracy of the puncture was assured by the aspiration of clear, viscous synovial fluid (time 0 sample). The syringe was removed and immune complexes (see below) were injected into the synovial space. The synovial space was re-entered at various time intervals and synovial fluid was withdrawn. The volume of fluid was recorded and then added to 3.0 ml of 0.3% saline. A sample was removed and the number of cells present counted with the use of a hemocytometer and microscope to enumerate the total number of cells in the joint. The remaining sample was centrifuged at 1000×g for 10 minutes and the supernatant analyzed for prostaglandin E2 levels and leukotriene B4 levels.
(§2) To prepare the immune complex, two hundred milligrams of partially purified dog IgG was dissolved in 20 ml 0.9% sterile sodium chloride. The solution was clarified by centrifugation at 2230×G at 20° C. for 10 minutes. A 3 ml volume of the 10.0 mg/ml solution of dog IgG was mixed with 1 ml rabbit anti-dog IgG serum and incubated at room temperature for 20 minutes.
(§3) Four milliliters of saturated ammonium sulfate were added to the mixture to precipitate the complex and all free dog IgG and rabbit gamma globulin. The sample was then centrifuged (as above) and the pellet resuspended in 10 ml 0.9% sterile saline. One ml of this solution was injected into a knee joint.
(§4) Following the intra-articular administration of immune complexes synovial fluid samples were taken at 30 minutes, 1,2,4 and 24 hours, alternating knees for sampling (except at 24 hours when both knees were sampled).
(§5) The articular joint was entered and a zero hour synovial fluid sample was removed. 1 ml of immune complexes was injected into the synovial joint of both legs. […] Synovial fluid samples were taken at 30 minutes, 1, 2 and 4 hours. All samples were analyzed for total granulocyte count using a laser flow cytometer. Prostaglandin and leukotriene concentrations were determined with standard RIA techniques.

Prostaglandin E2 = assay: Immune complex-induced synovitis in the dog knee joint: prostaglandin E2 levels; type: in vivo, Mongrel dogs; settings: for levels of PGE2 in the synovial fluid (in words): 100 mg/kg orally; for levels of PGE2 in the synovial fluid (in words) / PGE2 levels (in words): dog; for Prostaglandin E2 Levels: radioimmunoassay; for PGE2 levels (in words): i.v. 25 mg/kg or orally
Description: as §1, §2, §3, §4, §5

Leukotriene B4 = assay: Immune complex-induced synovitis in the dog knee joint: leukotriene B4 levels; type: in vivo, Mongrel dogs; settings: for levels of LTB4 in the synovial fluid (in words): 100 mg/kg orally; for levels of LTB4 in the synovial fluid (in words) / LTB4 levels (in words): dog; for LTB4 levels (in words): i.v. 25 mg/kg or orally
Description: as §1, §2, §3, §4, §5

cyclooxygenase (CO) [2] = settings: cited from earlier work
gastrointestinal tract [3] = settings: suboptimal antiinflammatory doses; cited from earlier work
[4] = system: Lewis strain laboratory rats; assay: In vivo alleviation of inflammation: polyarthritis (adjuvant, Mycobacterium butyricum) in rats, inhibition of paw volume increase; settings: Rattus norvegicus, po
bronchospasm / LTB4 = assay: Arachidonic acid-induced bronchospasm and LTB4 blood levels in anesthetized guinea pigs; type: in vivo; settings: administered orally, guinea pigs
Description: Intravenous administration of 10 mg/kg AA to anesthetized guinea pigs pretreated with indomethacin (10 mg/kg) and propranolol (0.1 mg/kg) results in a sustained bronchospasm which is associated with increased blood levels of LTB4. […] In the dog, intraarticular injection of rabbit anti-dog-dog IgG immune complexes into the knee joint results in an acute synovitis characterized by an influx of inflammatory cells into the joint space as well as an increase in synovial fluid levels of PGE2 and LTB4.

in vivo = settings: rat, in vivo
Source text: (§6) All NSAIDs are inhibitors of CO and their potency against this enzyme activity correlates well with clinical doses used in rheumatic diseases. There is also a correlation between CO inhibition (decreased PGE2) and the ability to induce gastric lesions in the fasted rat model. All NSAIDs induce at least some gastrointestinal lesions within their therapeutic range.

gastrointestinal tract [5] = assay: Ulcerogenicity in rats (gastric lesions, fasted rat model); settings: rats
Source text: as §6

gastrointestinal = assay: Gastrointestinal side effects in dogs after one week; type: in vivo; settings: doses up to 2700 mg/kg
Source text: as §6

cyclooxygenase (CO) [6] = assay: Inhibition of cyclooxygenase (CO)
5-lipoxygenase (5-LO) = assay: Inhibition of 5-lipoxygenase (5-LO)

In the case of `COc1ccc2cc([C@H](C)C(=O)O)ccc2c1` [Naproxen, reference compound], the “cellular infiltrate (in words)” value [1] is reported as “inhibited the cell infiltration”, the “Cellular Infiltrate Total Cells (× 10^6)” value ([1]; 100 mg/kg p.o., 0.5 HR) is reported as 0.32 ± 0.11 × 10^6 and the “Cellular Infiltrate Total Cells (× 10^6)” value ([1]; 100 mg/kg p.o., 1 HR) is reported as 0.02 ± 0.02 × 10^6. For the same compound, the “% I (inhibition) of total cells” value ([1]; 100 mg/kg p.o., 2 HR) was 36.6%, the “Cellular Infiltrate Total Cells (× 10^6)” value ([1]; 100 mg/kg p.o., 2 HR) was 2.69 ± 0.63 × 10^6 and the “% I (inhibition) of total cells” value ([1]; 100 mg/kg p.o., 4 HR) was 44.2%. For the same compound, the “Cellular Infiltrate Total Cells (× 10^6)” value ([1]; 100 mg/kg p.o., 4 HR) was 27.6 ± 24 × 10^6, the “total cell number / cellular infiltration (in words)” value [1] was “inhibits” and the “levels of PGE2 in the synovial fluid (in words)” value (Prostaglandin E2) was “inhibited”. For the same compound, the Prostaglandin E2 Levels (Prostaglandin E2; 100 mg/kg p.o., 0.5 Hr) was 0.83 ± 0.24 ng/mL, the Prostaglandin E2 Levels (Prostaglandin E2; 100 mg/kg p.o., 1 Hr) was 1.67 ± 0.73 ng/mL and the “% I (inhibition) of prostaglandin E2 levels” value (Prostaglandin E2; 100 mg/kg p.o., 2 Hr) was 62.0%. For the same compound, the Prostaglandin E2 Levels (Prostaglandin E2; 100 mg/kg p.o., 2 Hr) was 1.88 ± 0.86 ng/mL, the “% I (inhibition) of prostaglandin E2 levels” value (Prostaglandin E2; 100 mg/kg p.o., 4 Hr) was 44.9% and the Prostaglandin E2 Levels (Prostaglandin E2; 100 mg/kg p.o., 4 Hr) was 2.2 ± 0.97 ng/mL. For the same compound, the “PGE2 levels (in words)” value (Prostaglandin E2) was “inhibits PGE 2 levels”, the “levels of LTB4 in the synovial fluid (in words)” value (Leukotriene B4) was “increased the LTB4 levels” and the “% I (inhibition) of leukotriene B4” value (Leukotriene B4; 100 mg/kg p.o., 0.5 Hr) was 10.5%. For the same compound, the “Leukotriene B4” value (Leukotriene B4; 100 mg/kg p.o., 0.5 Hr) was 1.11 ± 0.36 ng/ml Synovial Fluid, the “% I (inhibition) of leukotriene B4” value (Leukotriene B4; 100 mg/kg p.o., 1 Hr) was -26.7% and the “Leukotriene B4” value (Leukotriene B4; 100 mg/kg p.o., 1 Hr) was 3.27 ± 1.53 ng/ml Synovial Fluid. The “% I (inhibition) of leukotriene B4” value (Leukotriene B4; 100 mg/kg p.o., 2 Hr) was -47.4%, the “Leukotriene B4” value (Leukotriene B4; 100 mg/kg p.o., 2 Hr) was 5.94 ± 1.33 ng/ml Synovial Fluid and the “% I (inhibition) of leukotriene B4” value (Leukotriene B4; 100 mg/kg p.o., 4 Hr) was -140%. For the same compound, the “Leukotriene B4” value (Leukotriene B4; 100 mg/kg p.o., 4 Hr) was 3.36 ± 1.28 ng/ml Synovial Fluid, the “LTB4 levels (in words)” value (Leukotriene B4) was “does not decrease” and the “inhibition of cyclooxygenase enzyme by NSAIDs (in words)” value (cyclooxygenase (CO) [2]) was “only inhibit the cyclooxygenase enzyme”. For the same compound, the “ulcers in rats (in words)” value (gastrointestinal tract [3]) was “significant ulcers”.

For `COc1ccc(-n2nc(CCC(=O)N(C)O)cc2-c2ccc(Cl)cc2)cc1` [Compound 3, 3-[5-(4-Chlorophenyl)-1-(4-methoxyphenyl)-3-pyrazolyl]-N-hydroxy-N-methylpropanamide], the ED50 ([4]; adjuvant rat, read-out: dose which inhibits the inflammatory response of the adjuvant rat by 50 percent (ED50)) was 3 mg/kg, the ED50 ([4]; rat, read-out: ED50 (effective dose to obtain a 50% inhibition of inflammation)) was 4.1 mg/kg and the “Cellular Infiltrate Total Cells (× 10^6)” value ([1]; 25 mg/kg p.o., 0.5 HR) was 0.12 ± 0.04 × 10^6. For the same compound, the “Cellular Infiltrate Total Cells (× 10^6)” value ([1]; 25 mg/kg p.o., 1 HR) was 0.39 ± 0.19 × 10^6, the “% I (inhibition) of total cells” value ([1]; 25 mg/kg p.o., 2 HR) was 7.4% and the “Cellular Infiltrate Total Cells (× 10^6)” value ([1]; 25 mg/kg p.o., 2 HR) was 5.74 ± 2.5 × 10^6. The “% I (inhibition) of total cells” value ([1]; 25 mg/kg p.o., 4 HR) was 6.5%, the “Cellular Infiltrate Total Cells (× 10^6)” value ([1]; 25 mg/kg p.o., 4 HR) was 46.3 ± 27.9 × 10^6 and the “cellular infiltrate (in words)” value [1] was “reduces the cellular infiltrate”. The “Cellular Infiltrate Total Cells (× 10^6)” value ([1]; 100 mg/kg p.o., 0.5 HR) was 0.26 ± 0.23 × 10^6, the “Cellular Infiltrate Total Cells (× 10^6)” value ([1]; 100 mg/kg p.o., 1 HR) was 0.13 ± 0.07 × 10^6 and the “% I (inhibition) of total cells” value ([1]; 100 mg/kg p.o., 2 HR) was 78%. The “Cellular Infiltrate Total Cells (× 10^6)” value ([1]; 100 mg/kg p.o., 2 HR) was 1.35 ± 0.55 × 10^6, the “% I (inhibition) of total cells” value ([1]; 100 mg/kg p.o., 4 HR) was 55.2% and the “Cellular Infiltrate Total Cells (× 10^6)” value ([1]; 100 mg/kg p.o., 4 HR) was 22.2 ± 6.6 × 10^6. For the same compound, the “total cell number / cellular infiltration (in words)” value [1] was “significantly inhibits”, the Prostaglandin E2 Levels (Prostaglandin E2; 25 mg/kg p.o., 1 Hr) was 2.34 ± 1 ng/mL and the “% I (inhibition) of prostaglandin E2 levels” value (Prostaglandin E2; 25 mg/kg p.o., 2 Hr) was 38.2%. The Prostaglandin E2 Levels (Prostaglandin E2; 25 mg/kg p.o., 2 Hr) was 2.96 ± 0.92 ng/mL, the “% I (inhibition) of prostaglandin E2 levels” value (Prostaglandin E2; 25 mg/kg p.o., 4 Hr) was 44.6% and the Prostaglandin E2 Levels (Prostaglandin E2; 25 mg/kg p.o., 4 Hr) was 2.27 ± 0.76 ng/mL. For the same compound, the “levels of PGE2 in the synovial fluid (in words)” value (Prostaglandin E2) was “reduces”, the Prostaglandin E2 Levels (Prostaglandin E2; 100 mg/kg p.o., 0.5 Hr) was 1.8 ± 1.29 ng/mL and the Prostaglandin E2 Levels (Prostaglandin E2; 100 mg/kg p.o., 1 Hr) was 1.5 ± 1.05 ng/mL. The “% I (inhibition) of prostaglandin E2 levels” value (Prostaglandin E2; 100 mg/kg p.o., 2 Hr) was 97.9%, the Prostaglandin E2 Levels (Prostaglandin E2; 100 mg/kg p.o., 2 Hr) was 0.1 ± 0.08 ng/mL and the “% I (inhibition) of prostaglandin E2 levels” value (Prostaglandin E2; 100 mg/kg p.o., 4 Hr) was 42.4%. The Prostaglandin E2 Levels (Prostaglandin E2; 100 mg/kg p.o., 4 Hr) was 2.36 ± 0.53 ng/mL, the “PGE2 levels (in words)” value (Prostaglandin E2) was “significantly inhibits” and the “Leukotriene B4” value (Leukotriene B4; 25 mg/kg p.o., 1 Hr) was 3.00 ± 1.2 ng/ml Synovial Fluid. For the same compound, the “Leukotriene B4” value (Leukotriene B4; 25 mg/kg p.o., 2 Hr) was 4.60 ± 2.10 ng/ml Synovial Fluid, the “Leukotriene B4” value (Leukotriene B4; 25 mg/kg p.o., 4 Hr) was 1.20 ± 0.6 ng/ml Synovial Fluid and the “levels of LTB4 in the synovial fluid (in words)” value (Leukotriene B4) was “reduces”. The “% I (inhibition) of leukotriene B4” value (Leukotriene B4; 100 mg/kg p.o., 0.5 Hr) was 25%, the “Leukotriene B4” value (Leukotriene B4; 100 mg/kg p.o., 0.5 Hr) was 0.93 ± 0.26 ng/ml Synovial Fluid and the “% I (inhibition) of leukotriene B4” value (Leukotriene B4; 100 mg/kg p.o., 1 Hr) was 69%. The “Leukotriene B4” value (Leukotriene B4; 100 mg/kg p.o., 1 Hr) was 0.80 ± 0.09 ng/ml Synovial Fluid, the “% I (inhibition) of leukotriene B4” value (Leukotriene B4; 100 mg/kg p.o., 2 Hr) was 39% and the “Leukotriene B4” value (Leukotriene B4; 100 mg/kg p.o., 2 Hr) was 2.46 ± 0.94 ng/ml Synovial Fluid. The “% I (inhibition) of leukotriene B4” value (Leukotriene B4; 100 mg/kg p.o., 4 Hr) was 37%, the “Leukotriene B4” value (Leukotriene B4; 100 mg/kg p.o., 4 Hr) was 0.88 ± 0.23 ng/ml Synovial Fluid and the “inhibition of leukotriene production (in words)” value (Leukotriene B4; administered orally, dogs) was “effective inhibitor of leukotriene production”. The “LTB4 levels (in words)” value (Leukotriene B4) was “significantly inhibits”, the “inhibition of leukotriene production (in words)” value (bronchospasm / LTB4) was “effective inhibitor of leukotriene production” and the TD50 (in vivo) was 173 mg/kg. For the same compound, the selectivity ratio (in vivo) was 58, the “ulcerogenicity in the gastrointestinal tract (in words)” value (gastrointestinal tract [5]) was “reduced ulcerogenic activity” and the “ulcerogenicity in the gastrointestinal tract (in words)” value (gastrointestinal tract [5]; listed as compound 3) was “lack of ulcerogenicity in the gastrointestinal tract”. For the same compound, the “significant gastrointestinal side effects (in words)” value (gastrointestinal) was “no significant gastrointestinal side effects”, the “inhibition of cyclooxygenase (CO) (in words)” value (cyclooxygenase (CO) [6]) was “inhibits both the cyclooxygenase (CO) and 5-lipoxygenase (5-LO) enzymes” and the “inhibition of 5-lipoxygenase (5-LO) (in words)” value (5-lipoxygenase (5-LO)) was “inhibits both the cyclooxygenase (CO) and 5-lipoxygenase (5-LO) enzymes”.

Reference: US5164381A, “Pharmacologically active 1,5-diaryl-3-substituted pyrazoles and method for synthesizing the same” (Ortho Pharmaceutical Corporation, priority 1991, dated 1992)
